Data reported in patent US20220395464A1, “ORALLY ADMINISTERED SOLID DOSAGE FORM DRUG” (ASCENTAWITS PHARMACEUTICALS, LTD., priority 2019, published 2022).
Several values for one entry are separate records, joined by “and”; a condition that tells them apart may be missing. Equal entries are not always repeated. Where two headings read alike, the source gives them in different places.

Test: Pharmacokinetics after single intravenous drip infusion, plasma LC-MS/MS
Assay type: in vivo, Philippine macaques
Details: for Plasma-drug concentration: AST-3424 intravenous drip infusion 0.58 mg/kg
Protocol: AST-3424 and AST-3424-D6 (i.e. the compound of formula I) were administered to Philippine macaques by intravenous drip infusion, and blood samples were collected at different appointed times. LC-MS/MS was used to determine concentrations of the test substances in plasma of the Philippine macaques after administration, and relevant pharmacokinetic parameters were calculated.
Preparation method: 0.447 ml of AST-3424 (0.2 mg/ml) and 0.481 ml of AST-3424-D6 (0.2 mg/ml) were added into 104.272 ml of the dissolvent, respectively, and mixed for 5 minutes to obtain colorless and clarified solutions with pH 7.0.
The four male Philippine macaques were purchased from Guangxi Xiongsen Primate Development Experiment Co., Ltd. All Philippine macaques were healthy with qualified medical examination and no abnormality. Three of animals were used for the experiment, and one of them was used to prepare blank plasma.
About 0.8 ml of blood samples were collected through femoral vein and anticoagulated with heparin sodium. Appointed times of blood collection were before administration, 0.17, 0.25, 0.5, 0.75, 1, 2, and 4 hours after administration.
The blood samples were placed on ice after collection. Next, plasma samples were separated by centrifugation, and centrifugation conditions were 3500 rpm for 10 minutes at 4° C. Then, the collected plasma samples were stored at −80° C. until analysis. The plasma samples were analyzed by LC-MS/MS by an analysis department of an experimental institution. Besides, Lower limit of quantifications (LLOQ) of AST-3424 and AST-3424-D6 detection were 1 ng/ml. The accuracy of analysis results of an accompanying standard curve and a quality control samples all met the relevant requirements of biological analysis (the accuracy of the quality control samples exceeding 66.7% was between 85˜115%) in a process of the sample detection.
According to average blood concentration data of each group at each appointed time, the pharmacokinetic parameters of the compounds were respectively computed by a pharmacokinetic computing software, a non-compartmental model. In addition, the pharmacokinetic parameters were AUC0-t, AUC0-∞, MRT0-∞, Cmax, Tmax, t1/2, etc. In the case of the concentrations of the samples whose concentration being lower than a lower limit of quantification, the following schemes were used to compute the pharmacokinetic parameters. The samples sampled before reaching Cmax shall be computed as zero value, while the samples sampled after reaching Cmax shall be computed as non-quantifiable (marked as “BLQ”).
After a single intravenous infusion of the compounds AST-3424 and AST-3424-D6 was administered to the Philippine macaques, the whole blood samples of the corresponding animals were collected at the appointed times. Next, the whole blood samples were processed and biologically analyzed to obtain concentrations of the compounds in the plasma at the different appointed times. Results of the assay were listed in Table 14 below, and corresponding means of the plasma-drug concentration-time curves are shown in FIG. 3.
According to the plasma-drug concentration data of each drug group, the pharmacokinetic parameters of each compound group were computed using the non-compartmental model of the pharmacokinetic computing software. The pharmacokinetic

[1] = AST-3424 0.58 mg/kg single intravenous infusion, plasma, individual animals 101, 102, 103, 0.58 mg/kg

## C[C@H](OP(=O)(N1CC1)N1CC1)c1ccc([N+](=O)[O-])c(Oc2cccc(C(=O)N(C)C)c2)c1 [AST-3424, (S)-1-(3-(3-N,N-Dimethylaminocarbonyl)phenoxy-4-nitrophenyl)-1-ethyl-N,N′-bis(ethylene) phosphoramidate]
[1]
  AUC(0−t): 430.42 ng·h/mL and 474.63 ng·h/mL
  AUC(0−∞): 430.76 ng·h/mL and 475.04 ng·h/mL
  Cl: 22.4412 mL/min/kg and 20.3492 mL/min/kg
  Cmax: 677.40 ng/mL and 800.80 ng/mL
  MRT(0−t): 11.4 min
  MRT(0−∞): 11.4 min and 10.8 min
  T1/2: 10.8 min and 11.4 min
  Tmax: 15 min and 30 min and 10.2 min
  Vss: 0.26123 L/kg and 0.21373 L/kg
  Vz: 0.35358 L/kg and 0.33343 L/kg
0.17 hr, individual animals 101, 102, 103
  Plasma-drug concentration: 800.80 ng/mL and 685.96 ng/mL
0.25 hr, individual animals 101, 102, 103
  Plasma-drug concentration: 729.91 ng/mL and 695.61 ng/mL
0.5 hr, individual animals 101, 102, 103
  Plasma-drug concentration: 729.08 ng/mL and 679.80 ng/mL
0.75 hr, individual animals 101, 102, 103
  Plasma-drug concentration: 157.68 ng/mL and 118.92 ng/mL
1 hr, individual animals 101, 102, 103
  Plasma-drug concentration: 50.63 ng/mL and 31.86 ng/mL
2 hr, individual animals 101, 102, 103, LLOQ 1 ng/ml
  Plasma-drug concentration: 1.51 ng/ ml and BLQ
4 hr, individual animals 101, 102, 103, LLOQ 1 ng/ml
  Plasma-drug concentration: BLQ
male, Philippine macaque, cynomolgus monkey, plasma, iv, 0.58 mg/kg, AST-3424 0.58 mg/kg single intravenous infusion, plasma, individual animals 101, 102, 103, read-out: AUC(0−t)
  AUC(0-t): 404 ng·h/mL
male, Philippine macaque, cynomolgus monkey, plasma, iv, 0.58 mg/kg, AST-3424 0.58 mg/kg single intravenous infusion, plasma, individual animals 101, 102, 103, read-out: AUC(0−∞)
  AUC(0-inf): 409 ng·h/mL
male, Philippine macaque, cynomolgus monkey, plasma, iv, 0.58 mg/kg, AST-3424 0.58 mg/kg single intravenous infusion, plasma, individual animals 101, 102, 103, read-out: Cl (converted)
  clearance: 23.6 mL/min/kg
male, Philippine macaque, cynomolgus monkey, plasma, iv, 0.58 mg/kg, AST-3424 0.58 mg/kg single intravenous infusion, plasma, individual animals 101, 102, 103, read-out: Cmax
  Cmax: 696 ng/mL
male, Philippine macaque, cynomolgus monkey, plasma, iv, 0.58 mg/kg, AST-3424 0.58 mg/kg single intravenous infusion, plasma, individual animals 101, 102, 103, read-out: T1/2 (converted)
  half-life: 6.6 min
male, Philippine macaque, cynomolgus monkey, plasma, iv, 0.58 mg/kg, AST-3424 0.58 mg/kg single intravenous infusion, plasma, individual animals 101, 102, 103, read-out: Vss
  Vd: 0.202 L/kg
male, Philippine macaque, cynomolgus monkey, plasma, iv, 0.58 mg/kg, AST-3424 0.58 mg/kg single intravenous infusion, plasma, individual animals 101, 102, 103, read-out: Vz
  Vd: 0.231 L/kg
male, Philippine macaque, cynomolgus monkey, plasma, iv, 0.58 mg/kg, AST-3424 0.58 mg/kg single intravenous infusion, plasma, read-out: AUC(0−t), Mean
  AUC(0-t): 436 ± 35.6 ng·h/mL
male, Philippine macaque, cynomolgus monkey, plasma, iv, 0.58 mg/kg, AST-3424 0.58 mg/kg single intravenous infusion, plasma, read-out: AUC(0−∞), Mean
  AUC(0-inf): 438 ± 33.5 ng·h/mL
male, Philippine macaque, cynomolgus monkey, plasma, iv, 0.58 mg/kg, AST-3424 0.58 mg/kg single intravenous infusion, plasma, read-out: Cl, Mean (converted)
  clearance: 22.1 mL/min/kg
male, Philippine macaque, cynomolgus monkey, plasma, iv, 0.58 mg/kg, AST-3424 0.58 mg/kg single intravenous infusion, plasma, read-out: Cmax, Mean
  Cmax: 725 ± 66.6 ng/mL
male, Philippine macaque, cynomolgus monkey, plasma, iv, 0.58 mg/kg, AST-3424 0.58 mg/kg single intravenous infusion, plasma, read-out: MRT(0−t), Mean
  MRT last: 10.2 ± 1.8 min
male, Philippine macaque, cynomolgus monkey, plasma, iv, 0.58 mg/kg, AST-3424 0.58 mg/kg single intravenous infusion, plasma, read-out: MRT(0−∞), Mean
  MRT inf: 10.2 ± 1.8 min
male, Philippine macaque, cynomolgus monkey, plasma, iv, 0.58 mg/kg, AST-3424 0.58 mg/kg single intravenous infusion, plasma, read-out: T1/2, Mean (converted)
  half-life: 9.6 min
